The numbers were not newly measured in US20230104323A1, “FORMULATIONS OF POLYBASIC DRUGS TO REDUCE MULTI-ORGAN TOXICITY” (priority 2019, published 2023), which cites them from elsewhere.

Molecules are shown by their SMILES.

The test system of the data set is healthy subjects. The conditions noted are these: plazomicin injection.

Regarding `CN[C@@H]1[C@@H](O)[C@@H](O[C@@H]2[C@@H](O)[C@H](O[C@H]3OC(CNCCO)=CC[C@H]3N)[C@@H](N)C[C@H]2NC(=O)[C@@H](O)CCN)OC[C@]1(C)O` [plazomicin], the “Nephrotoxicity and ototoxicity in humans” value is “no nephrotoxicity and ototoxicity”.
